Tests used:
[1] = test system: ADP-Induced Aggregation In Rabbit Platelets; experiment: Inhibition of ADP-induced aggregation in rabbit platelets (aggregometer, PRP); format: cell-based; settings: Oryctolagus cuniculus, Platelet, ADP 7.5 × 10^-5 M, PRP 300,000 platelets/mm^3; for inhibition at 100 µM: concentration 10^-4 M; for inhibition at 1 µM: concentration 10^-6 M; for inhibition at 0.01 µM: concentration 10^-8 M; for inhibition at 10 µM: concentration 10^-5 M
Protocol: (§1) The inhibitory activity of some compounds of this invention and the method for determination of the activity are described hereinafter in greater detail.
(§2) The aggregation inhibitory activity was determined using an AG-II type aggregometer (made by Bryston Manufacturing Co.). A blood sample was withdrawn from rabbits as a mixture of sodium citrate and whole blood in a proportion of 1:9 by volume and centrifuged at 1000 rpm for 10 minutes to obtain a platelet rich plasma (PRP). The resulting PRP was separated, and the remaining blood sample was further centrifuged at 3000 rpm for 15 minutes to obtain a platelet poor plasma (PPP).
(§3) The number of platelets in the PRP was counted in accordance with the Brecher-Clonkite Method, and the PRP was diluted with the PPP to prepare a PRP sample containing platelets in an amount of 300,000/mm^3 for an adenosine diphosphate (ADP)-induced aggregation test and a PRP sample containing platelets in an amount of 450,000/mm^3 for a collagen-induced aggregation test.
(§4) 0.01 ml of a solution of a test compound having a predetermined concentration (as shown in the Tables below) was then added to 0.6 ml of the PRP sample obtained above and the mixture was incubated at a temperature of 37° C for 1 minute. Then 0.07 ml of an ADP or collagen solution was added to the mixture. The mixture was then subjected to a transmittance determination and changes in the transmittance of the mixture were recorded using aggregometer at a stirrer rotation rate of 1100 rpm. In this test, Owren Veronal buffer (pH 7.35) was used for the preparation of solutions of ADP, collgen and the test compounds. ADP was adjusted to a concentration of 7.5 × 10^-5 M, and the collagen solution was prepared by triturating 100 mg of collagen with 5 ml of the above buffer and the supernatant obtained was used as a collagen inducer. Adenosine and acetylsalicylic acid were used as controls for the ADP-induced aggregation test and the collagen-induced aggregation test, respectively. The aggregation inhibitory activity was determined in terms of the percent inhibition (%) with respect to the aggregation ratio of controls. The aggregation ratio can be calculated by the following equation: [formula] Wherein:
(§5) "a" is the optical density of the PRP,
(§6) "b" is the optical density of the PRP having incorporated therein a test compound and an aggregation inducer, and
(§7) "c" is the optical density of the PPP.

[2] = test system: Collagen-Induced Aggregation In Rabbit Platelets; experiment: Inhibition of collagen-induced aggregation in rabbit platelets (aggregometer, PRP); format: cell-based; settings: Oryctolagus cuniculus, Platelet, PRP 450,000 platelets/mm^3; for inhibition at 100 µM: concentration 10^-4 M; for inhibition at 10 µM: concentration 10^-5 M; for inhibition at 1 µM: concentration 10^-6 M; for inhibition at 0.01 µM: concentration 10^-8 M
Protocol: as §1, §2, §3, §4, §5, §6, §7

With `OCC(O)COc1cccc2c(O)nccc12` (centres unmarked) the inhibition at 100 µM ([1]; table 3) was 2%, the inhibition at 1 µM ([1]; table 3) was 6% and the inhibition at 0.01 µM ([1]; table 3) was 0%.
`CC(=O)Oc1ccccc1C(=O)O` [Acetylsalicylic Acid, reference compound] showed an inhibition at 100 µM ([2]; table 5) of 100%, an inhibition at 10 µM ([2]; table 5) of 12% and an inhibition at 1 µM ([2]; table 5) of 8%.
`Nc1ncnc2c1ncn2[C@@H]1O[C@H](CO)[C@@H](O)[C@H]1O` [Adenosine, reference compound] was tested, and the inhibition at 100 µM ([1]; table 3) was 70%, the inhibition at 1 µM ([1]; table 3) was 47% and the inhibition at 0.01 µM ([1]; table 3) was 5%. The inhibition at 100 µM ([1]; table 4) was 92%, the inhibition at 10 µM ([1]; table 4) was 74% and the inhibition at 1 µM ([1]; table 4) was 63%. It also gave an inhibition at 0.01 µM ([1]; table 4) of 15%.
`O=C1CCc2c(cccc2OCC(O)CO)N1` (centres unmarked) [drawing 32] was tested, and the inhibition at 100 µM ([2]; table 2) was 100%, the inhibition at 1 µM ([2]; table 2) was 11% and the inhibition at 0.01 µM ([2]; table 2) was 8%.
With `CN1C(=O)CCc2c(OCC(O)CO)cccc21` (centres unmarked) [drawing 33] the inhibition at 100 µM ([2]; table 2) was 7%, the inhibition at 1 µM ([2]; table 2) was 13% and the inhibition at 0.01 µM ([2]; table 2) was 0%.
`C=CCN1C(=O)CCc2c(OCC(O)CO)cccc21` (centres unmarked) [drawing 34] gave an inhibition at 100 µM ([2]; table 2) of 0%, an inhibition at 1 µM ([2]; table 2) of 0% and an inhibition at 0.01 µM ([2]; table 2) of 0%.
In the case of `O=C1CCc2cc(OCC(O)CO)ccc2N1` (centres unmarked) [drawing 35], the inhibition at 100 µM ([2]; table 2) is reported as 100%, the inhibition at 1 µM ([2]; table 2) is reported as 9% and the inhibition at 0.01 µM ([2]; table 2) is reported as 26%.
Compound `O=C1CCc2ccc(OCC(O)CO)cc2N1` (centres unmarked) [drawing 36] has an inhibition at 100 µM ([2]; table 2) of 13%, an inhibition at 1 µM ([2]; table 2) of 18% and an inhibition at 0.01 µM ([2]; table 2) of 4%.
With `O=C1CCc2cccc(OCC(O)CO)c2N1` (centres unmarked) [drawing 37] the inhibition at 100 µM ([2]; table 2) was 25%, the inhibition at 1 µM ([2]; table 2) was 7% and the inhibition at 0.01 µM ([2]; table 2) was 21%.
`O=C1CCc2c(cccc2OCC(O)CO)N1` (centres unmarked) [drawing 38] gave an inhibition at 100 µM ([1]; table 3) of 21%, an inhibition at 1 µM ([1]; table 3) of 17% and an inhibition at 0.01 µM ([1]; table 3) of 21%.
`CN1C(=O)CCc2c(OCC(O)CO)cccc21` (centres unmarked) [drawing 39] showed an inhibition at 100 µM ([1]; table 3) of 7%, an inhibition at 1 µM ([1]; table 3) of 13% and an inhibition at 0.01 µM ([1]; table 3) of 0%.
Work on `C=CCN1C(=O)CCc2c(OCC(O)CO)cccc21` (centres unmarked) [drawing 40] yielded an inhibition at 100 µM ([1]; table 3) of 0%, an inhibition at 1 µM ([1]; table 3) of 0% and an inhibition at 0.01 µM ([1]; table 3) of 0%.
For `O=C1CCc2cc(OCC(O)CO)ccc2N1` (centres unmarked) [drawing 41], the inhibition at 100 µM ([1]; table 3) was 100%, the inhibition at 1 µM ([1]; table 3) was 9% and the inhibition at 0.01 µM ([1]; table 3) was 26%.
Compound `O=C1CCc2ccc(OCC(O)CO)cc2N1` (centres unmarked) [drawing 42] has an inhibition at 100 µM ([1]; table 3) of 13%, an inhibition at 1 µM ([1]; table 3) of 18% and an inhibition at 0.01 µM ([1]; table 3) of 4%.
`O=C1CCc2cccc(OCC(O)CO)c2N1` (centres unmarked) [drawing 43] gave an inhibition at 100 µM ([1]; table 3) of 25%, an inhibition at 1 µM ([1]; table 3) of 7% and an inhibition at 0.01 µM ([1]; table 3) of 21%.
Compound `O=C1CCc2c(cccc2OC[C@H](O)CO)N1` [drawing 46] has an inhibition at 100 µM ([1]; table 4) of 49%, an inhibition at 10 µM ([1]; table 4) of 16% and an inhibition at 1 µM ([1]; table 4) of 8%. The inhibition at 0.01 µM ([1]; table 4) was 0%.
In the case of `O=C1CCc2c(cccc2OCC(O)CO)N1` (centres unmarked) [drawing 47], the inhibition at 100 µM ([1]; table 4) is reported as 51%, the inhibition at 10 µM ([1]; table 4) is reported as 18% and the inhibition at 1 µM ([1]; table 4) is reported as 18%. It also gave an inhibition at 0.01 µM ([1]; table 4) of 15%.
Compound `O=C1CCc2c(cccc2OC[C@H](O)CO)N1` [drawing 48] has an inhibition at 100 µM ([2]; table 5) of 95%, an inhibition at 10 µM ([2]; table 5) of 3% and an inhibition at 1 µM ([2]; table 5) of 3%. It also gave an inhibition at 0.01 µM ([2]; table 5) of 0%.
For `O=C1CCc2c(cccc2OCC(O)CO)N1` (centres unmarked) [drawing 49], the inhibition at 100 µM ([2]; table 5) was 95%, the inhibition at 10 µM ([2]; table 5) was 17% and the inhibition at 1 µM ([2]; table 5) was 7%. For the same compound, the inhibition at 0.01 µM ([2]; table 5) was 3%.
